Laboratory results reported in paper PMC9516332 (Frontiers in Oncology, 2022).
Like-named read-outs stand apart in the source and are kept apart here.

Tests used:
[1] = tested on: 134 cancer cell lines
[2] = biological target: T1, panel of 255 wild-type kinases (Homo sapiens, UniProt O15146); details: MUSK, 1 µmol/L single concentration, cited from earlier work
T1 sequence (O15146 24-869): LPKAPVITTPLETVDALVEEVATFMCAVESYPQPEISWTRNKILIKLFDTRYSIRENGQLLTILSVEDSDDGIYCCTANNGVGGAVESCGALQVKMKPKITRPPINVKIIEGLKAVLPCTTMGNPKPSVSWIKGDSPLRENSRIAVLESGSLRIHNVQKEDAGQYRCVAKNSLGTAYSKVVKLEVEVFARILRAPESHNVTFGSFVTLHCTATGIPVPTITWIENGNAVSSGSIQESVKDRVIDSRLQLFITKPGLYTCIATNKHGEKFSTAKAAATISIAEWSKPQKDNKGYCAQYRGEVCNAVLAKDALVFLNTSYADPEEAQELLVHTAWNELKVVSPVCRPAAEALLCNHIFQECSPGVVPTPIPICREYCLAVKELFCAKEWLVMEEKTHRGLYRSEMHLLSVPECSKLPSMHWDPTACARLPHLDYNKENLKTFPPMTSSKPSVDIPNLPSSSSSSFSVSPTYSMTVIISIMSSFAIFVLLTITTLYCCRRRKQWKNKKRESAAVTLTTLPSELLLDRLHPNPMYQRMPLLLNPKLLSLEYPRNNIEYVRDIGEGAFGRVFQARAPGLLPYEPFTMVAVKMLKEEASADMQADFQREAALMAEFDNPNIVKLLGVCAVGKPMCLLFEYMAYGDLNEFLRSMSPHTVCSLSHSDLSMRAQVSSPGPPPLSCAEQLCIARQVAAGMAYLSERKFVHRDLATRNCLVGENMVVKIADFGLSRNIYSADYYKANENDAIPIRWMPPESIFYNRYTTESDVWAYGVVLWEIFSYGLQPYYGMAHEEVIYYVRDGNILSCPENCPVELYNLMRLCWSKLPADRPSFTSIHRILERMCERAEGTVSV

[3] = biological target: T2, panel of 255 wild-type kinases (Homo sapiens, UniProt Q13470); details: kinase TNK1, 1 µmol/L single concentration, cited from earlier work
T2 sequence (Q13470 1-666): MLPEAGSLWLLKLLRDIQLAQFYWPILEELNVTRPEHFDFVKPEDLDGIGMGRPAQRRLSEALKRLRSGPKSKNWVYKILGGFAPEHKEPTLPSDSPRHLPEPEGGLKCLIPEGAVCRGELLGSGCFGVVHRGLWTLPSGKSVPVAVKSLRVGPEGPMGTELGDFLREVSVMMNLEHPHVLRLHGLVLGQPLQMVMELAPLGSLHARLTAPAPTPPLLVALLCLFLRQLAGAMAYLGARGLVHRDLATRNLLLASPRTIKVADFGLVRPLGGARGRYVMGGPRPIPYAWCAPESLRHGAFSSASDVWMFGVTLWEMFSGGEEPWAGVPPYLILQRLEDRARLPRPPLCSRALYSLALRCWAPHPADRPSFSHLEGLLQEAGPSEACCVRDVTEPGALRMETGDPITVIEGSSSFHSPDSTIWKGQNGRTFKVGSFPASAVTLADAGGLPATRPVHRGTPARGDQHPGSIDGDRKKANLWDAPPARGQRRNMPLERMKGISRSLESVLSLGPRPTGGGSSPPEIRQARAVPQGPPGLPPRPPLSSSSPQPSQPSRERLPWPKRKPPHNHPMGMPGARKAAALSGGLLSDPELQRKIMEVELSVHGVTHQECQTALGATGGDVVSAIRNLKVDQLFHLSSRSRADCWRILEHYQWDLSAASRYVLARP

[4] = ref DOI: 10.1158/1535-7163.MCT-18-0877
[5] = ref DOI: 10.1371/journal.pone.0092146

Compound	IC50 [1] [nM]	%-inhibition, MUSK [2, 4] [%]	%-inhibition at 1 µmol/L, TNK1 [3, 4] [%]	%-inhibition, MUSK [2, 5] [%]	%-inhibition at 1 µmol/L, TNK1 [3, 5] [%]
O=C(c1ccc(F)c(F)c1Nc1ccc(I)cc1F)N1CC(O)([C@@H]2CCCCN2)C1 [cobimetinib]	56	2.78	4.29		
CC(C)(C)c1nc(-c2cccc(NS(=O)(=O)c3c(F)cccc3F)c2F)c(-c2ccnc(N)n2)s1 [dabrafenib]	1080			16	100
Cc1cc(Nc2ncc(Cl)c(Nc3ccccc3S(=O)(=O)C(C)C)n2)c(OC(C)C)cc1C1CCNCC1 [ceritinib]	3850	45	101		
CCCS(=O)(=O)Nc1ccc(F)c(C(=O)c2c[nH]c3ncc(-c4ccc(Cl)cc4)cc23)c1F [vemurafenib]	> 31600			-0.285	13
CC(=O)Nc1cccc(-n2c(=O)n(C3CC3)c(=O)c3c(Nc4ccc(I)cc4F)n(C)c(=O)c(C)c32)c1 [trametinib]	76			-0.929	-2.58
CC#CC(=O)N1CCC[C@H]1c1nc(-c2ccc(C(=O)Nc3ccccn3)cc2)c2c(N)nccn12 [acalabrutinib]		-0.581	-1.8		
C=CC(=O)Nc1cc(Nc2nccc(-c3cn(C)c4ccccc34)n2)c(OC)cc1N(C)CCN(C)C [osimertinib]		8	100		
CO[C@@H]1[C@H](N(C)C(=O)c2ccccc2)C[C@H]2O[C@]1(C)n1c3ccccc3c3c4c(c5c6ccccc6n2c5c31)C(=O)NC4 [midostaurin]		94	101		
C=CC(=O)N1CCC[C@@H](n2nc(-c3ccc(Oc4ccccc4)cc3)c3c(N)ncnc32)C1 [ibrutinib]		1.76	6		
C[C@@H](Oc1cc(-c2cnn(C3CCNCC3)c2)cnc1N)c1c(Cl)ccc(F)c1Cl [crizotinib]				99	41
